Some test systems named below: HT29 colon; K-562 leukemia; MDA-MB-435; OVCAR-8 ovarian; PC-3 prostate; SF-295 CNS; SK-OV-3 ovarian; SN12C renal; SR leukemia; UACC-62 melanoma.
Common to all, as to assay: NCI-60 cell line screen, 48 h

Where “and” joins values, the source holds several entries; their conditions need not be identical. Equal entries are not always repeated.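 The compound was tested at five concentrations on cells cultured in 96-well plates, with a 48-hour exposure period. The concentration for 50% growth inhibition is given as GI50. At the TGI there is no net growth.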 Some results are limits rather than exact numbers.

`O=C1C(Cl)=C(Nc2cccc(O)c2)C(=O)N1c1cccc(Cl)c1Cl`: the GI50 is 18.5 µM in the assay on HT29 colon; 13.5 µM in the assay with K-562 leukemia; 17.9 µM in the assay on MDA-MB-435; 15.1 µM in the assay with OVCAR-8 ovarian; 6.92 µM in the assay on PC-3 prostate; 3.28 µM with SF-295 CNS. The GI50 is 32.9 µM in the assay on SK-OV-3 ovarian, 14.5 µM in the assay with SN12C renal, 0.57 µM in the assay on SR leukemia and 14.6 µM with UACC-62 melanoma. Moreover, the TGI in the assay on HT29 colon worked out at 58.3 µM; in the assay on K-562 leukemia, 29.6 µM; in the assay with MDA-MB-435 it was 43.1 µM; in the assay with OVCAR-8 ovarian, 30.4 µM; in the assay on PC-3 prostate it was 28.6 µM; in the assay on SF-295 CNS, 25.2 µM. The TGI in the assay with SK-OV-3 ovarian is over 100 µM; with SN12C renal, 28.2 µM; in the assay with SR leukemia it was 10.3 µM; with UACC-62 melanoma, 34 µM.

For the compound `CC(=O)OCC1OC(n2c(-c3ccccc3)c(C)c(C)c(C#N)c2=S)C(OC(C)=O)C(OC(C)=O)C1OC(C)=O` (stereo not given), the TGI in the assay with HT29 colon was over 100 µM; in the assay on K-562 leukemia, over 100 µM; in the assay with MDA-MB-435, over 100 µM; in the assay on OVCAR-8 ovarian, over 100 µM; in the assay on PC-3 prostate, over 100 µM; in the assay on SF-295 CNS it was > 50 µM and 66.4 µM. Besides, the TGI was 48.8 µM and > 100 µM in the assay with SK-OV-3 ovarian; over 100 µM with SN12C renal; over 100 µM in the assay with SR leukemia; > 50 µM and 43.5 µM in the assay with UACC-62 melanoma. In addition, the GI50 in the assay on K-562 leukemia is 24.8 µM and > 100 µM; in the assay on OVCAR-8 ovarian, 17.6 µM and > 100 µM; in the assay on SK-OV-3 ovarian, 13.2 µM and > 100 µM; in the assay on SN12C renal, 48.3 µM and > 100 µM; with SR leukemia, 32.3 µM and 95.3 µM.

For `CC[C@@]1(O)C(=O)OCc2c1cc1n(c2=O)Cc2c-1nc1ccccc1c2/C=N/OC(C)(C)C`, the GI50 was 0.0187 µM in the assay with HT29 colon; 0.0189 µM in the assay on K-562 leukemia; 0.0301 µM in the assay with MDA-MB-435; under 0.0118 µM in the assay on OVCAR-8 ovarian; 0.0769 µM in the assay on PC-3 prostate; under 0.01 µM in the assay on SF-295 CNS. In addition, the GI50 in the assay on SK-OV-3 ovarian, in the assay on SN12C renal, in the assay with SR leukemia and in the assay on UACC-62 melanoma was under 0.01 µM throughout. In addition, the TGI in the assay with HT29 colon is 0.66 µM; with K-562 leukemia, over 100 µM; with MDA-MB-435, 3.92 µM; in the assay on OVCAR-8 ovarian it was over 42.1 µM; in the assay with PC-3 prostate it was 27.2 µM; with SF-295 CNS, 0.599 µM. Further, the TGI with SK-OV-3 ovarian was 1.34 µM; in the assay with SN12C renal, 4.75 µM; in the assay on SR leukemia, 0.108 µM; with UACC-62 melanoma it was 0.118 µM.

Turning to `COC(=O)C1C2CCCN2OC1(C)CO` (stereo not given), the TGI in the assay with HT29 colon, in the assay on K-562 leukemia, with MDA-MB-435, in the assay with OVCAR-8 ovarian, in the assay on PC-3 prostate and in the assay with SF-295 CNS was over 100 µM throughout. For the same compound, the TGI in the assay with SK-OV-3 ovarian, in the assay with SN12C renal, in the assay with SR leukemia and with UACC-62 melanoma was over 100 µM throughout.

Turning to `Oc1cc2ccccc2cc1-c1n[nH]c(=S)n1-c1ccc(Cl)cc1`, the GI50 was 24.6 µM with HT29 colon; over 100 µM with K-562 leukemia; 4.66 µM in the assay with MDA-MB-435; 38.4 µM with OVCAR-8 ovarian; 15.7 µM in the assay on PC-3 prostate; 13.1 µM in the assay with SF-295 CNS. Further, the GI50 is 28.6 µM with SK-OV-3 ovarian, 10.8 µM in the assay on SN12C renal, 3.08 µM in the assay on SR leukemia and 7.88 µM in the assay with UACC-62 melanoma. Moreover, the TGI in the assay with HT29 colon is 76.3 µM; with K-562 leukemia it was over 100 µM; in the assay with MDA-MB-435, over 100 µM; in the assay with OVCAR-8 ovarian it was over 100 µM; in the assay with PC-3 prostate it was over 100 µM; in the assay on SF-295 CNS it was over 100 µM. Also, the TGI in the assay on SK-OV-3 ovarian is over 100 µM; in the assay with SN12C renal it was 55.2 µM; in the assay on SR leukemia, over 100 µM; in the assay with UACC-62 melanoma, 28.8 µM.

Take `Cc1ccc(S(=O)(=O)n2cc(-c3nnnn3-c3ccc(Cl)cc3)c(=O)c3ccccc32)cc1`: the GI50 is 57.7 µM in the assay on HT29 colon; 20.1 µM in the assay with K-562 leukemia; over 100 µM in the assay with MDA-MB-435; over 100 µM in the assay on OVCAR-8 ovarian; 57.3 µM in the assay on PC-3 prostate; 52.9 µM in the assay with SF-295 CNS. The GI50 was over 100 µM in the assay on SK-OV-3 ovarian, over 100 µM with SN12C renal, 40.9 µM in the assay with SR leukemia and 54.8 µM in the assay on UACC-62 melanoma. Further, the TGI in the assay with HT29 colon, in the assay on K-562 leukemia, in the assay with MDA-MB-435, with OVCAR-8 ovarian, in the assay on PC-3 prostate and in the assay with SF-295 CNS was over 100 µM in each case. The TGI in the assay on SK-OV-3 ovarian, in the assay with SN12C renal, with SR leukemia and with UACC-62 melanoma was over 100 µM in each case.
